In data set [1] the test system is diet-induced obese (DIO) mice. The experiment in a line: intraperitoneal glucose tolerance test (ipGTT), acute oral treatment (Experiments 1-5). Type of data set: in vivo, C57BL/6 mice. The following applies: HFD 4 weeks. The method, then: (§1) For all experiments, 12-14 weeks old male C57BL/6 mice were obtained from the University of Otago animal facility. All procedures were approved by the University of Otago Animal Ethics Committee. Mice were housed individually under a 12:12 h light/dark cycle and ambient temperature was 23° C. Animals had either access to low-fat diet (LFD, containing 10% fat; cat. no. D12450B; Research Diets) or high-fat diet (HFD, containing 60% fat; cat. No. D12492; Research Diets) for a duration of 4 weeks, and water ad libitum. For each experiment a new cohort of animals was employed.
For all experiments, the formulations were prepared by forming an ethanol solution of the selected active ingredient(s), i.e. B, I or S individually, the mix or the extract, and then diluting to the desired concentration with 0.9 wt % NaCl aqueous solution.
To investigate whether the compounds either individually, a mixture of all three compounds (B, S and I; hereinafter referred to as “mix”) or the total extract of yellow Dahlia ‘Ruskin Diane’ petals acutely affect glucose homeostasis, intraperitoneal glucose tolerance tests (ipGTTs) were performed in diet-induced obese (DIO) mice as a model to mimic human prediabetes and impairments in glucose metabolism. Individual compounds, the mix or the total extract were dissolved in 0.9% NaCl containing 5% ethanol and administered orally. Mice (n=7-8/group) were fed either a high fat diet (HFD) or respective low fat diet (LFD) for 4 weeks, fasted for 16 h and received the different compounds/combinations or vehicle (0.9% NaCl containing 5% ethanol) by oral gavage. For example, for administration to a 50 g mouse, an oral gavage having a volume of 500 μl was prepared, the oral gavage contained 500 μg of extract or 50 μg of compound(s). The volume of the gavage administered was adjusted based on the weight of the mouse subject. Glucose (1.5 g/kg body weight; dissolved in 0.9% NaCl) was injected intraperitoneally (i.p.) 60 minutes after oral gavage treatment, and an ipGTT was performed. Blood glucose levels were measured using a commercially available glucometer (Accu-Check Performa; Roche) whilst truncating the tip of the tail with a fresh scalpel blade. For statistical validation, the area under the curve (AUC) was calculated.
These experiments establish dose responses of the individual compounds using different concentrations (20, 10, 3.3, 1, 0.33 mg/kg body weight), the mix (20, 10, 3.3, 1, 0.33 mg/kg body weight) or the extract (50, 20, 10, 3.3, 1 mg/kg) to determine the highest non-effective dose to allow for testing of synergism in combination with commercially available diabetes drugs in subsequent experiments. Mice were fed either LFD or HFD 4 weeks (Experiments 4 and 5). After mice were food deprived for 16 hours, an pGTT was carried out as previously described.
(§2) Data were analysed by one-way ANOVA or repeated measures ANOVA followed by multiple comparison test, as appropriate, using GraphPad Prism 5 software (Graphpad Software, Inc.). The results are presented as means ±SEM, and differences were considered significant if p≤0.05.

Data set [2] can be described thus: stability of extract and butein in vitro (RPLC). The data set is classed as physicochemical. Here is the method:
Experiments were carried out on dissolving/dispersing Dahlia ‘Ruskin Diane’ extract into aqueous buffer. […] To confirm the cause of instability of the buffered extract, the stability of butein was assessed in aqueous buffer at pH7 (butein was stable at pH4). […] By contrast, butein was stable when diluted into EtOH and stored under ambient conditions (FIG. 16). […] The conversion of butein to sulfuretin is an oxidative cyclisation.

A further data set is described as follows: solubility. Type of data set: physicochemical. The settings on record: pH7 buffer solution.
In data set [3] the test system is diet-induced obese (DIO) mice. Put plainly: ipGTT after chronic metformin or pramlintide, alone or combined with the mix (Experiments 6-9). The data set is classed as in vivo, C57BL/6 mice. Here is the method: as §1
Separate cohorts of mice were treated with the respective control injections. Mice were fasted for 16 h and an ipGTT was performed as described.
After chronic treatment with the well described antidiabetic drugs mice were fasted for 16 h and received the mix acutely (0.33 mg/kg; containing 5% ethanol). 60 minutes later we carried out an ipGTT as described previously.
as §2

Data set [4] relates to phosphorylation of AKT (pAKT). The experiment in a line: central insulin signalling: pAKT immunoreactive cells in the arcuate nucleus (Experiment 10). The data set is classed as in vivo, C57BL/6 mice. The following applies: insulin 1 mg/kg 15 min before perfusion; LFD and HFD fed mice vs vehicle-injected. Here is the method:
To identify a mode of action of how the compounds, formulations and the extract affect glucose homeostasis, effects on central insulin signalling by measuring phosphorylation of AKT (pAKT) were investigated. AKT is the main target of insulin in the arcuate nucleus of the hypothalamus. To assess the degree of insulin action in the hypothalamus, phosphorylated AKT positive cells were counted. Mice were fed LFD or HFD for 4 weeks, fasted for 16 h and bodyweight matched. Sixty minutes before transcardial perfusion they received B (10 mg/kg), I (10 mg/kg), S (10 mg/kg), the mix (3.3 mg/kg of each compound), the extract (10 mg/kg) or vehicle (0.9% NaCl containing 5% ethanol) by oral gavage. Additionally, mice received an insulin (1 mg/kg) or vehicle injection 15 minutes before transcardial perfusion. Immunohistochemistry was carried out on mouse brain coronal cryosections as described previously in Benzler J, et al. Diabetes. […]
To investigate the molecular mechanisms and to identify the molecular targets of the mix and the extract, mice were fed either a HFD or LFD for 4 weeks followed by treatment with the mix (3.3 mg/kg body weight each) or the extract (10 mg/kg) acutely by oral gavage. […] The target protein of the insulin signalling pathway, pAKT, was visualized by immunohistochemistry and quantified by counting pAKT immunoreactive cells.

[5] abbreviates: Experiment 1: 10 mg/kg (mix: 3.3 mg/kg of each compound) oral gavage 1 h before ipGTT, vs HFD control.
Setting [6] is: Experiment 3: 3.3 mg/kg (each) orally 1 h before ipGTT.

In the case of `O=C(/C=C/c1ccc(O)c(O)c1)c1ccc(O)cc1O` [B, Butein], the “glucose tolerance in ipGTT” value in data set [1] (setting [5]) is “did not improve glucose tolerance”; in data set [1] (Experiment 2: 3.3 mg/kg of each compound orally 1 h before ipGTT, vs vehicle treated HFD mice) it was “no effect on glucose tolerance”. Also, the stability result in data set [2] (EtOH or DMSO solutions diluted into aqueous buffer at pH7, room temperature) is reported as “linear (zero order kinetics) conversion of butein to sulfuretin over time”; in data set [2] (aqueous buffer pH4), “stable”; in data set [2] (diluted into EtOH and stored under ambient conditions), “stable”. Further, the “rate of conversion to sulfuretin” value in data set [2] (attempts to exclude oxygen) is “slowed the reaction”; in data set [2] (excluding light and adding a radical inhibitor), “no effects on reaction rate”. The solubility result in the data set “solubility” is given as “limited solubility”.

`O=C(/C=C/c1ccc(O)cc1)c1ccc(O)cc1O` [I, Isoliquiritigenin]: the results for the “glucose tolerance in ipGTT” value in data set [1] (setting [5]) and in data set [1] (setting [6]) were “trend towards an improved glucose homeostasis” and “improved glucose tolerance”, respectively. Also, the “stability (concentration over time)” value in data set [2] is listed as “decreased in concentration much more slowly”.

`O=C1/C(=C/c2ccc(O)c(O)c2)Oc2cc(O)ccc21` [S, Sulfuretin]: the “glucose tolerance in ipGTT” value in data set [1] (setting [5]) is “significantly improve glucose tolerance”; in data set [1] (setting [6]), “improved glucose tolerance”.

As to `CN(C)C(=N)N=C(N)N` [metformin], the “glucose tolerance in ipGTT” value in data set [3] (Experiment 6: 300 mg/kg/d oral, twice daily, last 7 days, p=0.004 vs HFD control) is “improved glucose tolerance”. Moreover, the “highest dose that did not improve glucose tolerance” value in data set [3] (Experiment 6: oral gavage twice daily for last 7 days, HFD 4 weeks) came out at 100 mg/kg body weight.

As to `CC[C@H](C)[C@H](NC(=O)[C@@H]1CCCN1C(=O)CNC(=O)[C@H](Cc1ccccc1)NC(=O)[C@H](CC(N)=O)NC(=O)[C@H](CC(N)=O)NC(=O)[C@H](CO)NC(=O)[C@H](CO)NC(=O)[C@H](Cc1c[nH]cn1)NC(=O)[C@@H](NC(=O)[C@H](CC(C)C)NC(=O)[C@H](Cc1ccccc1)NC(=O)[C@H](CC(N)=O)NC(=O)[C@H](C)NC(=O)[C@H](CC(C)C)NC(=O)[C@H](CCCNC(=N)N)NC(=O)[C@H](CCC(N)=O)NC(=O)[C@@H](NC(=O)[C@H](C)NC(=O)[C@@H]1CSSC[C@H](NC(=O)[C@@H](N)CCCCN)C(=O)N[C@@H](CC(N)=O)C(=O)N[C@@H]([C@@H](C)O)C(=O)N[C@@H](C)C(=O)N[C@@H]([C@@H](C)O)C(=O)N1)[C@@H](C)O)C(C)C)C(=O)N[C@@H](CC(C)C)C(=O)N1CCC[C@H]1C(=O)N1CCC[C@H]1C(=O)N[C@H](C(=O)N[C@@H](CC(N)=O)C(=O)N[C@H](C(=O)NCC(=O)N[C@@H](CO)C(=O)N[C@@H](CC(N)=O)C(=O)N[C@H](C(=O)N[C@@H](Cc1ccc(O)cc1)C(N)=O)[C@@H](C)O)C(C)C)[C@@H](C)O` [pramlintide], the “glucose tolerance in ipGTT” value in data set [3] (Experiment 8: 1000 μg/kg/d s.c. twice daily for 5 days, p=0.0497 vs vehicle HFD) was “improved glucose tolerance”; in data set [3] (Experiment 8: the other concentrations (200, 40, 8, 1.6 μg/kg/d s.c.)) it was “no significant effect on glucose homeostasis”; in data set [3] (Experiment 9: pramlintide 200 μg/kg/d s.c. last 5 days and/or mix 0.33 mg/kg oral 1 h before ipGTT, vs HFD vehicle), “neither pramlintide alone at 200 μg/kg/d body weight (FIG. 9A) nor the mix at 0.33 mg/kg body weight (FIG. 9B) was able to improve glucose tolerance”. Further, the highest non-effective dose in data set [3] (Experiment 8: s.c. twice daily for last 5 days, HFD 4 weeks) is 200 μg/kg/d body weight.

For “Insulin: insulin (1 mg/kg) injected to activate the insulin signalling pathway”, the “pAKT positive cells in the arcuate nucleus” value in data set [4] is reported as “markedly increased pAKT positive cells”.
